Source: patent US6737429B2, “Pyrrole derivatives” (Hoffmann-La Roche Inc., priority 2000, dated 2004)

Tests used:
HIV-1 RT = HIV-1 RT (Human immunodeficiency virus type 1 group M subtype B, UniProt P04585); test: HIV-1 Reverse Transcriptase Assay: Inhibitor IC50 Determination; assay type: biochemical; conditions: purified recombinant enzyme, poly(rA)/oligo(dT)16 template-primer, 37° C. 30 min
Protocol: HIV-1 Reverse Transcriptase Assay: Inhibitor IC50 Determination.
HIV-1 RT assay was carried out in 96-well Millipore filtermat NOB50 plates using purified recombinant enzyme and a poly(rA)/oligo(dT)16 template-primer in a total volume of 50 μL. The assay constituents were 50 mM Tris/HCl, 50 mM NaCl, 1 mM EDTA, 6 mM MgCl2, 5 μM dTTP, 0.1 μCi [^3H] dTTP, 5 μg/ml poly (rA) pre annealed to 2.5 μg/ml oligo (dT)16 and a range of inhibitor concentrations in a final concentration of 10% DMSO. Reactions were initiated by adding 5 nM HIV-1 RT and after incubation at 37° C. for 30 min, they were stopped by the addition of 50 μl ice cold 20% TCA and allowed to precipitate at 4° C. for 30 min. The precipitates were collected by applying vacuum to the plate and sequentially washing with 2×200 μl of 10% TCA and 2×200 μl 70% ethanol. Finally the plates were dried and radioactivity counted in a Wallac Microbeta 1450 after the addition of 15 μl scintillation fluid per well. IC50's were calculated by plotting % inhibition versus log10 inhibitor concentrations.

[1] = test system: HXB2-strain of HIV in MT4 cells; test: Antiviral assay: protection of HIV-infected MT4 cells from cell-death (MTT); assay type: cell-based; conditions: Human immunodeficiency virus 1, 120 h; MT4 cells infected with HXB2-strain of HIV, 5 d, MTT viability
Protocol: Anti-HIV antiviral activity was assessed using an adaptation of the method of Pauwels et al. {Pauwels et al., 1988, J Virol Methods 20:309-321}. The method is based on the ability of compounds to protect HIV-infected T lymphoblastoid cells (MT4 cells) from cell-death mediated by the infection. The endpoint of the assay was calculated as the concentration of compound at which the cell viability of the culture was preserved by 50% (‘50% inhibitory concentration’, IC50). The cell viability of a culture was determined by the uptake of soluble, yellow 3-[4,5-dimethylthiazol-2-yl]-2,5-diphenyltetrazolium bromide (MTT) and its reduction to a purple insoluble formazan salt. After solubilization, spectrophotometric methods were employed to measure the amount of formazan product.
MT4 cells were prepared to be in logarithmic-phase growth and a total of 2×10^6 cells infected with the HXB2-strain of HIV at a multiplicity of 0.0001 infectious units of virus per cell in a total volume of between 200-500 microliters. The cells were incubated with virus for one h at 37° C. before removal of virus. The cells are then washed in 0.01 M phosphate buffered saline, pH 7.2 before being resuspensed in culture medium for incubation in culture with serial dilutions of test compound. The culture medium used was RPMI 1640 without phenol red, supplemented with penicillin, streptomycin, L-glutamine and 10% fetal calf serum (GM10).
Test compounds were prepared as 2 mM solutions in dimethyl sulphoxide (DMSO). Four replicate, serial 2-fold dilutions in GM10 were then prepared and 50 microliters amounts placed in 96-well plates over a final nanomolar concentration range of 625-1.22. Fifty microliters GM10 and 3.5×10^4 infected cells were then added to each well. Control cultures containing no cells (blank), uninfected cells (100% viability; 4 replicates) and infected cells without compound (total virus-mediated cell death; 4 replicates) were also prepared. The cultures were then incubated at 37° C. in a humidified atmosphere of 5% CO2 in air for 5 d.
A fresh solution of 5 mg/mL MTT was prepared in 0.01 M phosphate buffered saline, pH 7.2 and 20 microliters added to each culture. The cultures were further incubated as before for 2 h. They were then mixed by pipetting up and down and 170 microliters of Triton X-100 in acidified isopropanol (10% v/v Triton X-100 in 1:250 mixture of concentrated HCl in isopropanol). When the formazan deposit was fully solubilized by further mixing, the absorbance (OD) of the cultures was measured at 540 nm and 690 nm wavelength (690 nm readings were used as blanks for artifacts between wells). The percent protection for each treated culture was calculated using the equation: [formula]

## Cc1c(CO)c(C(C)C)c(Sc2cc(Cl)ccc2Cl)n1Cc1ccncc1
HIV-1 RT
  IC50: 86 nM
[1]
  IC50: 69 nM

## Cc1c(CO)c(C(C)C)c(Sc2ccc(F)cc2Cl)n1Cc1ccncc1
HIV-1 RT
  IC50: 5430 nM

## Cc1c(CNC(=O)c2ccccc2)c(C(C)C)c(Sc2cc(Cl)cc(Cl)c2)n1Cc1ccncc1
HIV-1 RT
  IC50: 283 nM
[1]
  IC50: 84 nM

## COCc1c(C(C)C)c(Sc2cc(Cl)cc(Cl)c2)n(Cc2ccncc2)c1C
HIV-1 RT
  IC50: 658 nM
[1]
  IC50: 91 nM

## CC(C)c1cc(COC(N)=O)n(Cc2ccncc2)c1Sc1cc(Cl)cc(Cl)c1
HIV-1 RT
  IC50: 33 nM
[1]
  IC50: 16 nM

## CC(=O)NCc1c(C(C)C)c(Sc2cc(Cl)cc(Cl)c2)n(Cc2ccncc2)c1C
HIV-1 RT
  IC50: 198 nM
[1]
  IC50: 32 nM

## Cc1c(C#N)c(-c2ccccc2)c(Sc2cc(Cl)cc(Cl)c2)n1Cc1ccncc1
HIV-1 RT
  IC50: 2450 nM

## COC(=O)NCc1c(C(C)C)c(Sc2cc(Cl)cc(Cl)c2)n(Cc2ccncc2)c1C
HIV-1 RT
  IC50: 90 nM

## Cc1c(CN=[N+]=[N-])c(C(C)C)c(Sc2cc(Cl)cc(Cl)c2)n1Cc1ccncc1
HIV-1 RT
  IC50: 91 nM
[1]
  IC50: 16 nM

## Cc1cc(C(C)C)c(Sc2cc(Cl)cc(Cl)c2)n1Cc1ccncc1
HIV-1 RT
  IC50: 117 nM
[1]
  IC50: 44 nM

## CC(C)c1c(CO)c(CO)n(Cc2ccncc2)c1Sc1cc(Cl)cc(Cl)c1
HIV-1 RT
  IC50: 60 nM
[1]
  IC50: 10 nM

## Cc1c(CO)c(C)n(Cc2ccncc2)c1Sc1cc(Cl)cc(Cl)c1
HIV-1 RT
  IC50: 287 nM
[1]
  IC50: 49 nM

## CC(C)c1c(CO)c(C(C)C)n(Cc2ccncc2)c1Sc1cccc(Cl)c1
HIV-1 RT
  IC50: 272 nM
[1]
  IC50: 110 nM

## CC(C)c1cc(CO)n(Cc2ccncc2)c1Sc1cc(Cl)cc(Cl)c1
HIV-1 RT
  IC50: 289 nM
[1]
  IC50: 183 nM

## CC(=O)/C=C/c1cc(C(C)C)c(Sc2cc(Cl)cc(Cl)c2)n1Cc1ccncc1
HIV-1 RT
  IC50: 972 nM

## Cc1c(C(N)=O)c(C(C)C)c(Sc2cc(Cl)cc(Cl)c2)n1Cc1ccncc1
HIV-1 RT
  IC50: 150 nM
[1]
  IC50: 22 nM

## Cc1c(CO)c(C(C)C)c(Sc2cc(Cl)cc(Cl)c2)n1C
HIV-1 RT
  IC50: 930 nM
[1]
  IC50: 580 nM

## Cc1c(CO)c(-c2ccccc2)c(Sc2cc(Cl)cc(Cl)c2)n1Cc1ccncc1
HIV-1 RT
  IC50: 493 nM
[1]
  IC50: 407 nM

## CCc1c(CO)c(C(C)C)c(Sc2cc(Cl)cc(Cl)c2)n1Cc1ccncc1
HIV-1 RT
  IC50: 43 nM
[1]
  IC50: 11 nM

## Cc1c(C(C)C)c(Sc2cc(Cl)cc(Cl)c2)n(Cc2ccncc2)c1C
HIV-1 RT
  IC50: 125 nM
[1]
  IC50: 94 nM

## Cc1c(CO)c(C(C)C)c(Sc2cc(Cl)cc(Cl)c2)n1Cc1cccnc1
HIV-1 RT
  IC50: 79 nM
[1]
  IC50: 17.5 nM

## Cc1c(CO)c(C(C)C)c(Sc2ccccc2)n1Cc1ccncc1
HIV-1 RT
  IC50: 260 nM
[1]
  IC50: 11.5 nM

## Cc1c(CO)c(C(C)C)c(Sc2cccc(Cl)c2)n1Cc1cscn1
HIV-1 RT
  IC50: 4120 nM
